Measured values reported in US10695283B2, “Extract of Greyia radlkoferi and use thereof” (UNIVERSITY OF PRETORIA, priority 2012, dated 2020).

What was measured:
[1] = target: tyrosinase; test: tyrosinase inhibition; type: biochemical; settings: for tyrosinase 50% inhibitory concentration (IC50) of the individual phenolic compound: compound used in isolation; for individual tyrosinase inhibitory capability: isolated compounds
[2] = system: melanocyte cells; test: inhibition of melanin release by melanocyte cells in vitro; type: cell-based
Description: The inhibition of hyper-pigmentation is not restricted to inhibition at the enzyme level but melanin inhibition can also be achieved in vitro by the inhibition of melanin release by melanocyte cells.

With `COc1cc(O)c(C(=O)CCc2ccccc2)c(O)c1` [Compound C2, 2′,6′-dihydroxy-4′-methoxydihydrochalcone] the “tyrosinase 50% inhibitory concentration (IC50) of the individual phenolic compound” value [1] was 21.42 µg/mL, the “individual tyrosinase inhibitory capability” value [1] was “exhibit individual tyrosinase inhibitory capabilities” and the melanin reduction ([2]; at 3.125 μg/ml) was 20%.

In the case of `O=C(CCc1ccccc1)c1c(O)cc(O)cc1O` [Compound C3, 2′,4′,6′-trihydroxyhydrochalcone], the “tyrosinase 50% inhibitory concentration (IC50) of the individual phenolic compound” value [1] is reported as 17.86 µg/mL and the “individual tyrosinase inhibitory capability” value [1] is reported as “exhibit individual tyrosinase inhibitory capabilities”.

For `O=C(/C=C/c1ccc(O)cc1)c1ccc(O)cc1O` [isoliquirtigenin, reference compound], the “tyrosinase 50% inhibitory concentration (IC50)” value ([1]; L-tyrosine and DOPA used as substrates) was 896.88 µg/mL.

`O=C1C[C@@H](c2ccccc2)Oc2cc(O)cc(O)c21` [Compound C1, 5,7-dihidroxyflavone[(2S)-pinocembrin]] was tested, and the “individual tyrosinase inhibitory capability” value [1] was “exhibit individual tyrosinase inhibitory capabilities”.

In the case of `O=c1c(-c2ccc(O)cc2)coc2cc(O)cc(O)c12` [Compound C5, 4′,5′7-trihydroxyisoflavone], the “individual tyrosinase inhibitory capability” value [1] is reported as “exhibit individual tyrosinase inhibitory capabilities”.

For `O=c1c(O)c(-c2ccccc2)oc2cc(O)cc(O)c12` [Compound C4, 3,5,7-trihydroxyflavone], the “tyrosinase 50% inhibitory concentration (IC50) of the individual phenolic compound” value [1] was 2.23 µg/mL, the “individual tyrosinase inhibitory capability” value [1] was “exhibit individual tyrosinase inhibitory capabilities” and the melanin inhibited ([2]; at concentrations as low as 3.1 μg/ml) was “more than 50%”.
